# Experimental data as given in US8617563B2, “Antichlamydial agents” (Duke University, priority 2011, dated 2013).
# Experiments:
# CPAF [1] = biological target: T1, CPAF (Chlamydia trachomatis serovar D, UniProt O84866); type: biochemical, C. trachomatis; design: endogenous in cells; host or cells: HeLa cells infected with C. trachomatis LGV-L2 434/Bu (the bacteria make the protein and secrete it into the host cytosol); settings: cytosol pre-treated with inhibitor or antibody
# Experimental: (§1) FIG. 5 depicts (A) that Polyclonal anti-CPAF antisera blocks proteolysis of chlamydial substrates. Cytosols from Chlamydia-infected HeLa cells (40 hrs) or recombinant his-tagged CPAF were pre-treated with rabbit polyclonal anti-CPAF or anti-IncA antisera, and incubated with GST-tagged Chlamydia proteins for 20 min at 37° C. […] Three example proteins shown include a type-III secretion (T3S) core component (CdsQ) a T3S chaperone (Mcsc) and a T3S needle component (Ct584). Processing of recombinant proteins in A-B were monitored by immunoblot analysis with specific antibodies. (C) Protease inhibitor profile of recombinant CPAF. Example shown for the chlamydial substrate GST-IncC. […]
# Recombinant CPAF was generated using pET30b (Huang et al., Cell Host & Microbe, 4:529-542 (2008). For in vitro cleavage assays, Chlamydia ORFs were expressed in either yeast or E. coli. Crude recombinant proteins were incubated for 30 minutes with cytosol from uninfected or LGV-L2 infected (40 h) HeLa cells, and processing was assessed by SDS-PAGE and immunoblotting using standard techniques. Approximately 8% of the expressed chlamydial proteins were sensitive to degradation after incubation with cytosol derived from infected cells (FIG. 3A). Processing ranged from the generation of distinct cleavage fragments to complete degradation (FIG. 3B). […]
# Target sequence in this assay (O84866 276-601): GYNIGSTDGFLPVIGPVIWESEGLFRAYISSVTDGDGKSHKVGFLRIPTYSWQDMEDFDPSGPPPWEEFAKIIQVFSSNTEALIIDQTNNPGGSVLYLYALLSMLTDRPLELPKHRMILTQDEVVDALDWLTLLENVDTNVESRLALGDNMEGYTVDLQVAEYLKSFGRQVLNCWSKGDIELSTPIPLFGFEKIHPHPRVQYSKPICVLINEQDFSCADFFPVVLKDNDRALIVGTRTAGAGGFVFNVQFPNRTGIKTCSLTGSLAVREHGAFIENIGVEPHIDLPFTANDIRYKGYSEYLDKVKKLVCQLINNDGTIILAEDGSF
# Target sequence in this assay (O84866 24-234): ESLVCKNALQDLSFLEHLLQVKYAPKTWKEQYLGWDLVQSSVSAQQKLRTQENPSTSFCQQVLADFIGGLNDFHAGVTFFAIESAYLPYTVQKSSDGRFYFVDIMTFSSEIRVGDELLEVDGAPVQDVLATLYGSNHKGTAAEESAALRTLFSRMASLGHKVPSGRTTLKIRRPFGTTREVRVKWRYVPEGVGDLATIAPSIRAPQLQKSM
# CPAF [2] = biological target: T1, CPAF; assay: HPLC-based CPAF inhibition assay with Abz-tagged model substrate (SEQ ID NO:9); type: biochemical, C. trachomatis; design: 6xHis; made in house; host or cells: E. coli BL21 (DE3), plasmid pET30b-CPAF; settings: CPAF 62.5 nM, substrate SEQ ID NO:9 0.5 mM, inhibitor 0-240 μM
# Experimental: FIG. 1 depicts the results of HPLC-based CPAF inhibition assays using a model CPAF substrate (SEQ ID NO:9) to compare inhibition of CPAF protease activity by SEQ ID NO:7, SEQ ID NO:2, and lactacystin. HPLC-based assays were performed in a final volume of 100 μL containing assay buffer, CPAF (62.5 nM), substrate 1 (0.5 mM), and varying concentrations of inhibitor (0-240 μM).
# HPLC-based assays comprised an Abz-tagged model CPAF substrate (SEQ ID NO:9) and were performed in a final volume of 100 μL containing 150 mM NaCl, 50 mM Tris pH 7.50, purified CPAF (62.5 nM), fluorescent-tagged model CPAF substrate (0.5 mM), and varying concentrations of each candidate compound (0-240 μM). IC50 values were determined by pre-incubating CPAF with varying concentrations of candidate compound for 5 min at room temperature prior to initiation of the reaction via the addition of model CPAF substrate. Reactions were allowed to proceed for 90 seconds at 25° C., followed by removal of 80 μL aliquots and quenching by the addition of 1.2 M HCl (40 μL). Data were converted to percent activity relative to a control reaction without candidate compound and fit to the following equation using GraFit v6.0, where [I] is the concentration of candidate compound and s is a slope factor: […]
# Target sequence in this assay (O84866 276-601): as the sequence (O84866 276-601) above
# Target sequence in this assay (O84866 1-234, added parts left off): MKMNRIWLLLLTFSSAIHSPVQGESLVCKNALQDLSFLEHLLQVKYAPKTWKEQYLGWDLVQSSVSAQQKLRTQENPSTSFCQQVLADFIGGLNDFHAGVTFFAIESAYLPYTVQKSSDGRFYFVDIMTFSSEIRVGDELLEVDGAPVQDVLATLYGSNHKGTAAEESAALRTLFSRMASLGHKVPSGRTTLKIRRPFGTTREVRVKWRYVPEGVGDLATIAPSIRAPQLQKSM
# CPAF [3] = biological target: T1, CPAF; design: endogenous in cells; host or cells: HeLa cells infected with C. trachomatis LGV-L2 434/Bu (the bacteria make the protein and secrete it into the host cytosol); settings: C. trachomatis LGV-L2 434-infected HeLa cells; Kumar et al. 2008; cited from earlier work
# Target sequence in this assay (O84866 276-601): as the sequence (O84866 276-601) above
# Target sequence in this assay (O84866 24-234): as the sequence (O84866 24-234) above
# CPAF [4] = biological target: T1, CPAF; type: biochemical, C. trachomatis; design: 6xHis; made in house; host or cells: E. coli (pET30b); settings: GST-tagged chlamydial substrates, 37° C., 20 min
# Experimental: FIG. 4 depicts (A) Recombinant Chlamydia ORFs were tested for sensitivity to host and bacterial derived proteases. […] Purified his-tagged CPAF was incubated with GST-tagged chlamydial substrates at 37° C. for 20 min with increasing amounts of lactacystin. Cleavage products were run on an SDS PAGE gel and visualized with Coomassie blue staining. (C) Schematic summary of CPAF targets. […] Membranes from Chlamydia-infected HeLa cells were harvested and purified at 0, 24, 36 and 48 hours post-infection, and the abundance of the chlamydial proteins Ct005, IncC and IncD were monitored with specific antibodies. Na/K ATPase and IncG served as host and bacterial-loading controls, respectively.
# as §1, with “Cytosols” for “FIG. 5 depicts (A) that Polyclonal anti-CPAF antisera blocks proteolysis of chlamydial substrates. Cytosols”, “GST-IncC. Degradation products were visualized by SDS-PAGE followed by staining with Coomassie blue.” for “GST-IncC.”
# Target sequence in this assay (O84866 1-234, added parts left off): as the sequence (O84866 1-234, added parts left off) above
# Target sequence in this assay (O84866 276-601): as the sequence (O84866 276-601) above
# Uninfected and HeLa cells pre-infected with L2 for 30 hrs were treated with inhibitory peptides and infected with EBs for 10 min Tarp translocation was indirectly visualized with an anti-phosphotyrosine antibody (A) and quantified by counting 50 separate cells (B). The stability of newly translocated Tarp was assessed by infecting cells as in (A) but with S^35-labeled EBs, followed by sequential immunoprecipitation of Tarp and MOMP and Phosphoimager analysis of precipitated material (C (I-IV)). […] IC50 values were determined by assessing CPAF cleavage of an Abz-tagged CPAF substrate (SEQ ID NO:9) by HPLC. […] Extracellular bacteria were determined. […] The number of internalized EBs was quantified per cell (H). […]
smiles,measurement,setting,value
CC(=O)N[C@@H](CSC(=O)[C@]1([C@@H](O)C(C)C)NC(=O)[C@H](C)[C@@H]1O)C(=O)O [lactacystin],Protection of chlamydial proteins from degradation by cytosols of Chlamydia-infected cells,CPAF [1],protected from degradation
same,IC50,CPAF [2],10.2 ± 2.3 µM
same,Vimentin state in infected HeLa cells treated with lactacystin,CPAF [3],fiber oligomerization of vimentin
same,Inhibition of proteolysis by recombinant CPAF,CPAF [4],inhibited
